# Laboratory results published in PubChem BioAssay AID2060624 (Molecular Pharmacology Branch, DTP, NCI, 2025).
# System: 217524-143-R1-J4-PDC spheroids with HUVEC/MSC, viability
# Assay: Anticancer human tumor 217524-143-R1-J4-PDC patient-derived pancreatic carcinoma cell line growth inhibition [CLK]
# Details: for IC50: curve of first compound; for viability, T/C: stronger effect = lower value
# Summary of the method: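 Multi-cell-type spheroids combined patient-derived tumor cells with HUVEC endothelial cells and human mesenchymal stem cells. Paired agents were dosed in half-log steps down from about clinical Cmax, or from 10 microM where Cmax was unknown.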
# [1] = second compound 0.0316 µM, first compound 0.00949 µM
# [2] = second compound 0.0316 µM, first compound 0.03 µM
# [3] = second compound 0.0316 µM, first compound 0.0949 µM
# [4] = second compound 0.0316 µM, first compound 0.3 µM
# [5] = second compound 0.1 µM, first compound 0.00949 µM
# [6] = second compound 0.1 µM, first compound 0.03 µM
# [7] = second compound 0.1 µM, first compound 0.0949 µM
# [8] = second compound 0.1 µM, first compound 0.3 µM
# [9] = second compound 0.316 µM, first compound 0.00949 µM
# [10] = second compound 0.316 µM, first compound 0.03 µM
# [11] = second compound 0.316 µM, first compound 0.0949 µM
# [12] = second compound 0.316 µM, first compound 0.3 µM
# [13] = second compound 1 µM, first compound 0.00949 µM
# [14] = second compound 1 µM, first compound 0.03 µM
# [15] = second compound 1 µM, first compound 0.0949 µM
# [16] = second compound 1 µM, first compound 0.3 µM
# [17] = second compound 3.16 µM, first compound 0.00949 µM
# [18] = second compound 3.16 µM, first compound 0.03 µM
# [19] = second compound 3.16 µM, first compound 0.0949 µM
# [20] = second compound 3.16 µM, first compound 0.3 µM
# [21] = second compound 10 µM, first compound 0.00949 µM
# [22] = second compound 10 µM, first compound 0.03 µM
# [23] = second compound 10 µM, first compound 0.0949 µM
# [24] = second compound 10 µM, first compound 0.3 µM
# 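Also: spheroids exposed to agents for seven days before reading.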
# 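For viability, T/C in this document: 100% = DMSO vehicle control viability.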
smiles,measurement,setting,value
C=CC(=O)Nc1cc(Nc2nccc(-c3cn(C)c4ccccc34)n2)c(OC)cc1N(C)CCN(C)C + CNC(=O)c1ccc(Nc2nc(OC3CCCC3)c3c(-c4ccc5nc(C)oc5c4)c[nH]c3n2)c(OC)c1,IC50,second compound 0.0316 µM,0.0613 µM
same,IC50,second compound 0.1 µM,< 0.000949 µM
same,IC50,second compound 0.316 µM,< 0.000949 µM
same,IC50,second compound 1 µM,< 0.000949 µM
same,IC50,second compound 3.16 µM,< 0.000949 µM
same,IC50,second compound 10 µM,< 0.000949 µM
same,"viability, T/C","second compound 0.0316 µM, first compound 0.000949 µM",92%
same,"viability, T/C","second compound 0.0316 µM, first compound 0.003 µM",83.9%
same,"viability, T/C",[1],66.6%
same,"viability, T/C",[2],64.7%
same,"viability, T/C",[3],41.2%
same,"viability, T/C",[4],31.4%
same,"viability, T/C","second compound 0.1 µM, first compound 0.000949 µM",47.9%
same,"viability, T/C","second compound 0.1 µM, first compound 0.003 µM",38.6%
same,"viability, T/C",[5],41.9%
same,"viability, T/C",[6],31.2%
same,"viability, T/C",[7],22%
same,"viability, T/C",[8],17.1%
same,"viability, T/C","second compound 0.316 µM, first compound 0.000949 µM",39.3%
same,"viability, T/C","second compound 0.316 µM, first compound 0.003 µM",39.4%
same,"viability, T/C",[9],34%
same,"viability, T/C",[10],28.7%
same,"viability, T/C",[11],16%
same,"viability, T/C",[12],16%
same,"viability, T/C","second compound 1 µM, first compound 0.000949 µM",31.5%
same,"viability, T/C","second compound 1 µM, first compound 0.003 µM",28.3%
same,"viability, T/C",[13],25.9%
same,"viability, T/C",[14],18%
same,"viability, T/C",[15],13.3%
same,"viability, T/C",[16],9.6%
same,"viability, T/C","second compound 3.16 µM, first compound 0.000949 µM",31.4%
same,"viability, T/C","second compound 3.16 µM, first compound 0.003 µM",28.3%
same,"viability, T/C",[17],24.9%
same,"viability, T/C",[18],19.2%
same,"viability, T/C",[19],12.5%
same,"viability, T/C",[20],8.29%
same,"viability, T/C","second compound 10 µM, first compound 0.000949 µM",26.6%
same,"viability, T/C","second compound 10 µM, first compound 0.003 µM",22.3%
same,"viability, T/C",[21],24.7%
same,"viability, T/C",[22],20.1%
same,"viability, T/C",[23],13%
same,"viability, T/C",[24],9.91%
NC(=O)C(=Cn1cnc(-c2cc(C(F)(F)F)cc(C(F)(F)F)c2)n1)c1cncnc1 + CNC(=O)c1ccc(Nc2nc(OC3CCCC3)c3c(-c4ccc5nc(C)oc5c4)c[nH]c3n2)c(OC)c1,IC50,second compound 0.0316 µM,0.0166 µM
same,IC50,second compound 0.1 µM,< 0.00949 µM
same,IC50,second compound 0.316 µM,< 0.00949 µM
same,IC50,second compound 1 µM,< 0.00949 µM
same,IC50,second compound 3.16 µM,< 0.00949 µM
same,IC50,second compound 10 µM,< 0.00949 µM
same,"viability, T/C",[1],60.5%
same,"viability, T/C",[2],38.8%
same,"viability, T/C",[3],22.9%
same,"viability, T/C",[4],25.2%
same,"viability, T/C","second compound 0.0316 µM, first compound 0.949 µM",26.6%
same,"viability, T/C","second compound 0.0316 µM, first compound 3 µM",20.1%
same,"viability, T/C",[5],29.9%
same,"viability, T/C",[6],28.1%
same,"viability, T/C",[7],21%
same,"viability, T/C",[8],24.4%
same,"viability, T/C","second compound 0.1 µM, first compound 0.949 µM",23%
same,"viability, T/C","second compound 0.1 µM, first compound 3 µM",18.7%
same,"viability, T/C",[9],23.2%
same,"viability, T/C",[10],18.9%
same,"viability, T/C",[11],16.9%
same,"viability, T/C",[12],17.7%
same,"viability, T/C","second compound 0.316 µM, first compound 0.949 µM",18.9%
same,"viability, T/C","second compound 0.316 µM, first compound 3 µM",13.2%
same,"viability, T/C",[13],18.8%
same,"viability, T/C",[14],12.9%
same,"viability, T/C",[15],11.7%
same,"viability, T/C",[16],11.5%
same,"viability, T/C","second compound 1 µM, first compound 0.949 µM",10.9%
same,"viability, T/C","second compound 1 µM, first compound 3 µM",8.56%
same,"viability, T/C",[17],14.1%
same,"viability, T/C",[18],12.6%
same,"viability, T/C",[19],9.81%
same,"viability, T/C",[20],8.7%
same,"viability, T/C","second compound 3.16 µM, first compound 0.949 µM",6.96%
same,"viability, T/C","second compound 3.16 µM, first compound 3 µM",6.45%
same,"viability, T/C",[21],14.2%
same,"viability, T/C",[22],12%
same,"viability, T/C",[23],9.72%
same,"viability, T/C",[24],7.3%
same,"viability, T/C","second compound 10 µM, first compound 0.949 µM",6.09%
same,"viability, T/C","second compound 10 µM, first compound 3 µM",5.49%
Nc1ccccc1NC(=O)c1ccc(CNC(=O)OCc2cccnc2)cc1 + CNC(=O)c1ccc(Nc2nc(OC3CCCC3)c3c(-c4ccc5nc(C)oc5c4)c[nH]c3n2)c(OC)c1,IC50,second compound 0.0316 µM,4.96 µM
same,IC50,second compound 0.1 µM,3.85 µM
same,IC50,second compound 0.316 µM,< 0.0316 µM
same,IC50,second compound 1 µM,< 0.0316 µM
same,IC50,second compound 3.16 µM,< 0.0316 µM
same,IC50,second compound 10 µM,< 0.0316 µM
same,"viability, T/C","second compound 0.0316 µM, first compound 0.0316 µM",109%
same,"viability, T/C","second compound 0.0316 µM, first compound 0.1 µM",99%
same,"viability, T/C","second compound 0.0316 µM, first compound 0.316 µM",97.3%
same,"viability, T/C","second compound 0.0316 µM, first compound 1 µM",87.7%
same,"viability, T/C","second compound 0.0316 µM, first compound 3.16 µM",59.2%
same,"viability, T/C","second compound 0.0316 µM, first compound 10 µM",34%
same,"viability, T/C","second compound 0.1 µM, first compound 0.0316 µM",50.3%
same,"viability, T/C","second compound 0.1 µM, first compound 0.1 µM",50.2%
same,"viability, T/C","second compound 0.1 µM, first compound 0.316 µM",57.3%
same,"viability, T/C","second compound 0.1 µM, first compound 1 µM",62.1%
same,"viability, T/C","second compound 0.1 µM, first compound 3.16 µM",53%
same,"viability, T/C","second compound 0.1 µM, first compound 10 µM",32%
same,"viability, T/C","second compound 0.316 µM, first compound 0.0316 µM",37.9%
same,"viability, T/C","second compound 0.316 µM, first compound 0.1 µM",43%
same,"viability, T/C","second compound 0.316 µM, first compound 0.316 µM",47.8%
same,"viability, T/C","second compound 0.316 µM, first compound 1 µM",60.5%
same,"viability, T/C","second compound 0.316 µM, first compound 3.16 µM",53.2%
same,"viability, T/C","second compound 0.316 µM, first compound 10 µM",29.9%
same,"viability, T/C","second compound 1 µM, first compound 0.0316 µM",35.8%
same,"viability, T/C","second compound 1 µM, first compound 0.1 µM",35.9%
same,"viability, T/C","second compound 1 µM, first compound 0.316 µM",49.5%
same,"viability, T/C","second compound 1 µM, first compound 1 µM",46.2%
same,"viability, T/C","second compound 1 µM, first compound 3.16 µM",38.4%
same,"viability, T/C","second compound 1 µM, first compound 10 µM",22.3%
same,"viability, T/C","second compound 3.16 µM, first compound 0.0316 µM",33.1%
same,"viability, T/C","second compound 3.16 µM, first compound 0.1 µM",30.3%
same,"viability, T/C","second compound 3.16 µM, first compound 0.316 µM",34.6%
same,"viability, T/C","second compound 3.16 µM, first compound 1 µM",45%
same,"viability, T/C","second compound 3.16 µM, first compound 3.16 µM",40.3%
same,"viability, T/C","second compound 3.16 µM, first compound 10 µM",19.3%
same,"viability, T/C","second compound 10 µM, first compound 0.0316 µM",30.4%
same,"viability, T/C","second compound 10 µM, first compound 0.1 µM",25.9%
same,"viability, T/C","second compound 10 µM, first compound 0.316 µM",39.4%
same,"viability, T/C","second compound 10 µM, first compound 1 µM",38.6%
same,"viability, T/C","second compound 10 µM, first compound 3.16 µM",37.4%
same,"viability, T/C","second compound 10 µM, first compound 10 µM",13.3%
